Results reported in paper PMC6026185 (Scientific Reports, 2018).

Experiments:
hNKCC2 isoform B = details: Xenopus oocytes; ref Payne et al.[57]; Isenring et al.[58]; Plata et al.[59]; Carota et al.[56]; Lykke et al.[60]; Lykke et al.[29]; read-out: IC50 (µM) NKCC2 (hB); cited from earlier work
hNKCC1A = target: T1, hNKCC1A (Homo sapiens, UniProt P55011); test: 86Rb+ uptake in hNKCC1A-expressing Xenopus laevis oocytes; format: cell-based; details: 86Rb+ uptake, Xenopus oocytes, 5 min, corrected for uninjected oocytes; median and range of 3–7 experiments
T1 construct: Full-length NKCC1 (NKCC1A) comprises ~1200 amino acids; expressed in transfected cells; host or cells: Xenopus laevis oocytes injected with cRNA (pXOOM vector)
T1 sequence (P55011 1-1212): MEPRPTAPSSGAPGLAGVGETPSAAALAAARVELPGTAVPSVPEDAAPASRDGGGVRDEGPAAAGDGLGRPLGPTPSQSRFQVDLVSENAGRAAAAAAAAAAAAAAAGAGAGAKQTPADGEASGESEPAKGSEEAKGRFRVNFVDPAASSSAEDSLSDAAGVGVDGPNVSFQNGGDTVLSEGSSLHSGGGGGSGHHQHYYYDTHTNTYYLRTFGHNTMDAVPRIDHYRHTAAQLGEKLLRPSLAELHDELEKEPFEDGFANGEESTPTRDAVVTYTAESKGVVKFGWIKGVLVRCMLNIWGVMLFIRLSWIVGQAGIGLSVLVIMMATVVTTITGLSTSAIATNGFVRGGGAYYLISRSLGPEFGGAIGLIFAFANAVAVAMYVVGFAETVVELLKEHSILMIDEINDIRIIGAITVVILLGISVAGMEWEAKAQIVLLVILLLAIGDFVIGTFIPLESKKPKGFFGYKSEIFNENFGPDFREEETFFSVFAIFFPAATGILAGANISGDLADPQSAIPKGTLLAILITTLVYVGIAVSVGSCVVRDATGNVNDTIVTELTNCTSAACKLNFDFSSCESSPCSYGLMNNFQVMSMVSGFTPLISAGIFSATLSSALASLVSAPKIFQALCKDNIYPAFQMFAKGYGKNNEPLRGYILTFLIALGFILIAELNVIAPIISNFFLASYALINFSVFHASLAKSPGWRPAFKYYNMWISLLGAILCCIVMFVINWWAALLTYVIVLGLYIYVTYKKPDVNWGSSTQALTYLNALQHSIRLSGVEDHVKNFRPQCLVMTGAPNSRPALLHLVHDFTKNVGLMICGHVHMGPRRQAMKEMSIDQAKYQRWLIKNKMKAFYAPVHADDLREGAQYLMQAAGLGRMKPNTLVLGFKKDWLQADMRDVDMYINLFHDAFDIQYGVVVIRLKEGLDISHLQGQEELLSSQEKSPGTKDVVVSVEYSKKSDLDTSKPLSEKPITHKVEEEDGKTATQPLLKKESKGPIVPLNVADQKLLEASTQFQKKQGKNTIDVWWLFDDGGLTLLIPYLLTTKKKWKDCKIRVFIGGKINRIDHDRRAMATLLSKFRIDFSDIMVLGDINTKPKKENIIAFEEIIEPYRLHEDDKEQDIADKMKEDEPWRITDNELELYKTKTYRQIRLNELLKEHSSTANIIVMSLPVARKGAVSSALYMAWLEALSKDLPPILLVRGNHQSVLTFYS
Protocol: The oocytes were kept in Kulori medium (in mM: 90 NaCl, 1 KCl, 1 CaCl2, 1 MgCl2, 5 Hepes, pH 7.4, 182 mOsm) for 5–6 days at 19 °C prior to experiments.
To activate NKCC1A and NKCC1B prior to the ^86Rb^+ uptake measurements aimed at measuring NKCC-mediated fluxes, hNKCC1A- or hNKCC1B-expressing oocytes or uninjected control oocytes (4–13 oocytes per well) were pre-incubated for 30 min at room temperature in a K^+-free solution (containing in mM: 5 choline chloride, 95 NaCl, 1 MgCl2, 1 CaCl2, 10 Hepes, pH 7.4, 207 mOsm), which causes shrinkage of the oocyte and thus activation of NKCC1A[22]. […] The radioactivity was determined by liquid scintillation β-counting with Aquasafe 300 Plus scintillation cocktail (Zinsser Analytic GmbH, Frankfurt, Germany) using a Microbeta Trilux (Perkin Elmer). hNKCC1-mediated K^+ uptake was assessed as ([fluxNKCC1-expressing oocytes in presence of x µM drug]−[fluxuninjected oocytes in presence of x µM drug]), in order to correct for endogenous NKCC activity. […]
Significance of differences in transport activity of hNKCC1A or hNKCC1B expressing oocytes vs. uninjected oocytes were analyzed by the Kruskal-Wallis test followed by Dunn’s multiple comparisons test. […]

NKCC1 = details: Activated state; isoforms not differentiated; turkey erythrocytes; mIMCD-K2 cells; chick cardiac cells; winter flounder intestine; rat erythrocytes and thymocytes; ref Palfrey et al.[48]; Schlatter et al.[23]; Frelin et al.[49]; O’Grady et al.[50]; Glanville et al.[51]; Hannaert et al.[52]; cited from earlier work
mNKCC2 isoform F = system: mNKCC2 isoform F; design: method as in ref Payne et al.[57]; Isenring et al.[58]; Plata et al.[59]; Carota et al.[56]; Lykke et al.[60]; Lykke et al.[29]; details: Xenopus oocytes; ref Payne et al.[57]; Isenring et al.[58]; Plata et al.[59]; Carota et al.[56]; Lykke et al.[60]; Lykke et al.[29]; read-out: IC50 (µM) NKCC2 (mF); cited from earlier work

IC50 (hNKCC1A): 0.945 µM
Compound: CCCCNc1cc(C(=O)O)cc(S(N)(=O)=O)c1Oc1ccccc1 [Bumetanide]
IC50 (hNKCC2 isoform B): 0.22 µM | IC50 (NKCC1): 0.25 to 0.6 µM | IC50 (mNKCC2 isoform F): 3.4 µM
